For the assay, the target named is Prostaglandin G/H synthase 1 (Homo sapiens, UniProt P23219).

For one molecule, Ki results are on record in BindingDB's records for doi:10.2165/00003495-200262180-00006 (Adis International, 2002).

SMILES strings stand for the structures.

Sequence of Prostaglandin G/H synthase 1 (P23219 whole entry): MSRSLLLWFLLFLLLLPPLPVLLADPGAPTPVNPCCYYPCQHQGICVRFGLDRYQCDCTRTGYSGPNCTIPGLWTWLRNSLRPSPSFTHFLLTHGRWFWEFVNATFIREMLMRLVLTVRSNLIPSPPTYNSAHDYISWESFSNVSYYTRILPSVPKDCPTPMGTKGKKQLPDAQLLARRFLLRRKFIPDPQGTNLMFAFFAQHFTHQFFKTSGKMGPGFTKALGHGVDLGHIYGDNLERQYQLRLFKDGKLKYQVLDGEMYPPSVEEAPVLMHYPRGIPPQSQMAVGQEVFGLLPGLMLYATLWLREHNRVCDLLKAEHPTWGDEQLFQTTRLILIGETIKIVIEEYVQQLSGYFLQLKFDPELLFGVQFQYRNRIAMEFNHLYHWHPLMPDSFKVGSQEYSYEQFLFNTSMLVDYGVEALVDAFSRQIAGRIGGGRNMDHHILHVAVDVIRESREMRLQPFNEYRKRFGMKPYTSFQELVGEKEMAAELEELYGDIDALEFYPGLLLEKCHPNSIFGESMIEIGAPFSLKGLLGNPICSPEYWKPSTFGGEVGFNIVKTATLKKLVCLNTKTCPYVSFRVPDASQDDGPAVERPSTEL

As usually defined, the Ki is a measure of affinity in units of concentration, obtained from inhibition or displacement. A lower Ki goes with tighter binding. Molecule `Cc1ccc(-c2ncc(Cl)cc2-c2ccc(S(C)(=O)=O)cc2)cn1` yielded a Ki of more than 10 µM.
